Test results published in ChEMBL document CHEMBL4359915, “Design, synthesis and biological evaluation of novel diazaspiro[4.5]decan-1-one derivatives as potential chitin synthase inhibitors and antifungal agents” (Eur J Med Chem, 2019).
In brackets after ≈: the same amount, converted by molar mass.

Experiments:
Candida tropicalis = test: Inhibition of Candida tropicalis ATCC 750 chitin synthase at 300 ug/ml using UDP-GlcNAc as substrate relative to control
Candida albicans [1] = test: Antifungal activity against Candida albicans ATCC 76615 assessed as growth inhibition measured after 24 hrs by two-fold broth dilution method; assay type: functional; conditions: ATCC 76615, 24 h
Aspergillus fumigatus = test: Antifungal activity against Aspergillus fumigatus GIMCC 3.19 assessed as growth inhibition measured after 24 hrs by two-fold broth dilution method; assay type: functional; conditions: GIMCC 3.19, 24 h
Candida albicans [2] = test: Antifungal activity against Candida albicans ATCC 90023 assessed as growth inhibition measured after 24 hrs by two-fold broth dilution method; assay type: functional; conditions: ATCC 90023, 24 h
Cryptococcus neoformans = test: Antifungal activity against Cryptococcus neoformans ATCC 32719 assessed as growth inhibition measured after 24 hrs by two-fold broth dilution method; assay type: functional; conditions: ATCC 32719, 24 h
Aspergillus flavus = test: Antifungal activity against Aspergillus flavus ATCC 16870 assessed as growth inhibition measured after 24 hrs by two-fold broth dilution method; assay type: functional; conditions: ATCC 16870, 24 h
Staphylococcus aureus [3] = test: Antibacterial activity against methicillin-resistant Staphylococcus aureus N315 assessed as growth inhibition measured after 24 hrs by two-fold broth dilution method; assay type: functional; conditions: N315, 24 h
Staphylococcus aureus [4] = test: Antibacterial activity against Staphylococcus aureus ATCC 25923 assessed as growth inhibition measured after 24 hrs by two-fold broth dilution method; assay type: functional; conditions: ATCC 25923, 24 h
Bacillus spizizenii = test: Antibacterial activity against Bacillus subtilis ATCC 6633 assessed as growth inhibition measured after 24 hrs by two-fold broth dilution method; assay type: functional; conditions: ATCC 6633, 24 h
Escherichia coli = test: Antibacterial activity against Escherichia coli JM 109 assessed as growth inhibition measured after 24 hrs by two-fold broth dilution method; assay type: functional; conditions: JM 109, 24 h
Pseudomonas aeruginosa = test: Antibacterial activity against Pseudomonas aeruginosa ATCC 9027 assessed as growth inhibition measured after 24 hrs by two-fold broth dilution method; assay type: functional; conditions: ATCC 9027, 24 h
Proteus vulgaris = test: Antibacterial activity against Bacillus proteus ATCC 8427 assessed as growth inhibition measured after 24 hrs by two-fold broth dilution method; assay type: functional; conditions: ATCC 8427, 24 h
[5] = Inhibition of Candida tropicalis ATCC 750 chitin synthase using UDP-GlcNAc as substrate

SMILES	inhibition (Candida tropicalis)	MIC (Candida albicans [1])	MIC (Aspergillus fumigatus)	MIC (Candida albicans [2])	MIC (Cryptococcus neoformans)	MIC (Aspergillus flavus)	MIC (Staphylococcus aureus [3])	MIC (Staphylococcus aureus [4])	MIC (Bacillus spizizenii)	MIC (Escherichia coli)	MIC (Pseudomonas aeruginosa)	MIC (Proteus vulgaris)	IC50 [5]
COc1ccccc1NC(=O)[C@H](O)[C@@H](O)C(=O)N1CCC2(CCNC2=O)CC1	20.4%	650 µM (≈ 254 µg/mL)	330 µM (≈ 129 µg/mL)	40 µM (≈ 15.7 µg/mL)	330 µM (≈ 129 µg/mL)	650 µM (≈ 254 µg/mL)	330 µM (≈ 129 µg/mL)	1310 µM (≈ 513 µg/mL)	650 µM (≈ 254 µg/mL)	650 µM (≈ 254 µg/mL)	650 µM (≈ 254 µg/mL)	330 µM (≈ 129 µg/mL)	–
OC(Cn1cncn1)(Cn1cncn1)c1ccc(F)cc1F [FLUCONAZOLE]	–	52 µM (≈ 15.9 µg/mL)	104 µM (≈ 31.9 µg/mL)	104 µM (≈ 31.9 µg/mL)	52 µM (≈ 15.9 µg/mL)	209 µM (≈ 64 µg/mL)	–	–	–	–	–	–	–
Cc1ccccc1NC(=O)[C@H](O)[C@@H](O)C(=O)N1CCC2(CCNC2=O)CC1	49.8%	1360 µM (≈ 511 µg/mL)	340 µM (≈ 128 µg/mL)	170 µM (≈ 63.8 µg/mL)	680 µM (≈ 255 µg/mL)	1360 µM (≈ 511 µg/mL)	680 µM (≈ 255 µg/mL)	680 µM (≈ 255 µg/mL)	340 µM (≈ 128 µg/mL)	680 µM (≈ 255 µg/mL)	340 µM (≈ 128 µg/mL)	680 µM (≈ 255 µg/mL)	–
O=C(Nc1ccc(Br)cc1)[C@H](O)[C@@H](O)C(=O)N1CCC2(CCNC2=O)CC1	74.7%	290 µM (≈ 128 µg/mL)	1160 µM (≈ 511 µg/mL)	290 µM (≈ 128 µg/mL)	1160 µM (≈ 511 µg/mL)	150 µM (≈ 66 µg/mL)	1160 µM (≈ 511 µg/mL)	580 µM (≈ 255 µg/mL)	580 µM (≈ 255 µg/mL)	1160 µM (≈ 511 µg/mL)	290 µM (≈ 128 µg/mL)	1160 µM (≈ 511 µg/mL)	180 µM
NC(=O)OC[C@H](O)[C@@H](O)[C@H](N)C(=O)N[C@H](C(=O)O)[C@H]1O[C@@H](n2cc(CO)c(=O)[nH]c2=O)[C@H](O)[C@@H]1O [POLYOXIN B]	85%	32 µM (≈ 16.2 µg/mL)	32 µM (≈ 16.2 µg/mL)	129 µM (≈ 65.5 µg/mL)	64 µM (≈ 32.5 µg/mL)	32 µM (≈ 16.2 µg/mL)	–	–	–	–	–	–	80 µM
C[C@H]1COc2c(N3CCN(C)CC3)c(F)cc3c(=O)c(C(=O)O)cn1c23 [LEVOFLOXACIN]	–	–	–	–	–	–	11 µM (≈ 3.98 µg/mL)	22 µM (≈ 7.95 µg/mL)	11 µM (≈ 3.98 µg/mL)	11 µM (≈ 3.98 µg/mL)	3 µM (≈ 1.08 µg/mL)	5 µM (≈ 1.81 µg/mL)	–
O=C(Nc1ccccc1)[C@H](O)[C@@H](O)C(=O)N1CCC2(CCNC2=O)CC1	1.8%	710 µM (≈ 257 µg/mL)	1420 µM (≈ 513 µg/mL)	710 µM (≈ 257 µg/mL)	710 µM (≈ 257 µg/mL)	1420 µM (≈ 513 µg/mL)	710 µM (≈ 257 µg/mL)	1420 µM (≈ 513 µg/mL)	710 µM (≈ 257 µg/mL)	710 µM (≈ 257 µg/mL)	710 µM (≈ 257 µg/mL)	1420 µM (≈ 513 µg/mL)	–
COc1cccc(NC(=O)[C@H](O)[C@@H](O)C(=O)N2CCC3(CCNC3=O)CC2)c1	47.5%	160 µM (≈ 62.6 µg/mL)	330 µM (≈ 129 µg/mL)	650 µM (≈ 254 µg/mL)	330 µM (≈ 129 µg/mL)	650 µM (≈ 254 µg/mL)	650 µM (≈ 254 µg/mL)	650 µM (≈ 254 µg/mL)	330 µM (≈ 129 µg/mL)	650 µM (≈ 254 µg/mL)	650 µM (≈ 254 µg/mL)	650 µM (≈ 254 µg/mL)	–
CN[C@@H]1[C@H](O[C@H]2[C@H](O[C@H]3[C@H](O)[C@@H](O)[C@H](N=C(N)N)[C@@H](O)[C@@H]3N=C(N)N)O[C@@H](C)[C@]2(O)C=O)O[C@@H](CO)[C@H](O)[C@H]1O [STREPTOMYCIN]	–	–	–	–	–	–	55 µM (≈ 32 µg/mL)	28 µM (≈ 16.3 µg/mL)	28 µM (≈ 16.3 µg/mL)	14 µM (≈ 8.14 µg/mL)	7 µM (≈ 4.07 µg/mL)	14 µM (≈ 8.14 µg/mL)	–
O=C(Nc1cccc(C(F)(F)F)c1)[C@H](O)[C@@H](O)C(=O)N1CCC2(CCNC2=O)CC1	47.1%	300 µM (≈ 129 µg/mL)	600 µM (≈ 258 µg/mL)	300 µM (≈ 129 µg/mL)	70 µM (≈ 30.1 µg/mL)	60 µM (≈ 25.8 µg/mL)	300 µM (≈ 129 µg/mL)	300 µM (≈ 129 µg/mL)	150 µM (≈ 64.4 µg/mL)	150 µM (≈ 64.4 µg/mL)	300 µM (≈ 129 µg/mL)	150 µM (≈ 64.4 µg/mL)	–
Cc1ccc(NC(=O)[C@H](O)[C@@H](O)C(=O)N2CCC3(CCNC3=O)CC2)cc1	48.7%	340 µM (≈ 128 µg/mL)	680 µM (≈ 255 µg/mL)	680 µM (≈ 255 µg/mL)	340 µM (≈ 128 µg/mL)	170 µM (≈ 63.8 µg/mL)	340 µM (≈ 128 µg/mL)	170 µM (≈ 63.8 µg/mL)	680 µM (≈ 255 µg/mL)	340 µM (≈ 128 µg/mL)	170 µM (≈ 63.8 µg/mL)	680 µM (≈ 255 µg/mL)	–
O=C(Nc1ccc(F)c(F)c1)[C@H](O)[C@@H](O)C(=O)N1CCC2(CCNC2=O)CC1	36.7%	640 µM (≈ 254 µg/mL)	1290 µM (≈ 513 µg/mL)	320 µM (≈ 127 µg/mL)	80 µM (≈ 31.8 µg/mL)	320 µM (≈ 127 µg/mL)	1290 µM (≈ 513 µg/mL)	640 µM (≈ 254 µg/mL)	640 µM (≈ 254 µg/mL)	640 µM (≈ 254 µg/mL)	320 µM (≈ 127 µg/mL)	640 µM (≈ 254 µg/mL)	–
O=C(Nc1ccc(F)cc1)[C@H](O)[C@@H](O)C(=O)N1CCC2(CCNC2=O)CC1	36.7%	340 µM (≈ 129 µg/mL)	340 µM (≈ 129 µg/mL)	340 µM (≈ 129 µg/mL)	670 µM (≈ 254 µg/mL)	340 µM (≈ 129 µg/mL)	340 µM (≈ 129 µg/mL)	670 µM (≈ 254 µg/mL)	340 µM (≈ 129 µg/mL)	670 µM (≈ 254 µg/mL)	1350 µM (≈ 512 µg/mL)	340 µM (≈ 129 µg/mL)	–
O=C(Nc1ccccc1F)[C@H](O)[C@@H](O)C(=O)N1CCC2(CCNC2=O)CC1	23.1%	340 µM (≈ 129 µg/mL)	670 µM (≈ 254 µg/mL)	670 µM (≈ 254 µg/mL)	670 µM (≈ 254 µg/mL)	340 µM (≈ 129 µg/mL)	340 µM (≈ 129 µg/mL)	340 µM (≈ 129 µg/mL)	670 µM (≈ 254 µg/mL)	670 µM (≈ 254 µg/mL)	1350 µM (≈ 512 µg/mL)	670 µM (≈ 254 µg/mL)	–
